Source: patent publication US4874851A, “3',4'-dinitrogen substituted epipodophyllotoxin glucoside derivatives” (Bristol-Meyers Company, priority 1987, dated 1989)
Values after ≈ are worked out from the molar mass of the structure shown.

Key:
KB human nasopharyngyl = assay: In vitro cytotoxicity assay, KB human nasopharyngyl; format: cell-based; settings: inhibit cell growth by 50%, four-fold serial dilution, two lines per compound
Procedure: (§1) Representative compounds of the present invention were evaluated for their antitumor activity in in vitro cytotoxicity assay against human and murine tumor cell lines, as well as against transplantable murine P388 leukemia.
(§2) The in vitro cytotoxicity assay involved growing various mammalian tumor cells, including human tumor cells, on microtitre plates employing established tissue culture methods. The concentration of each compound required to inhibit cell growth by 50% (IC50) was then determined by a four-fold serial dilution technique. The validity of the method has been supported by a report published in the "Proceedings of the American Association for Cancer Research", 1984, 25: 1891 (Abst. No. 328). Tumor cells of the following types were employed for each compound tested: B16-F10 murine melanoma; KB human nasopharyngyl; Moser human colon; SW900 human lung; M109 murine lung; and three human colon tumor cell lines namely HCT-116, HCT-VM, and HCT-VP, the latter two being resistant to teniposide (VM) and etoposide (VP), respectively. IC50 values less than 500 μg/ml are a positive indicator of antitumor activity. Table II presents IC50 values of various compounds of the present invention against the aforementioned cell lines.

P388 leukemia = assay: Antitumor activity against transplantable murine P388 leukemia in mice (i.p. implant); format: in vivo, murine (female CDF1 mice); settings: i.p. on days 5 and 8; 10^6 ascites cells i.p.; maximum effect over doses; >=125 significant
Procedure: as §1
Female CDF1 mice were implanted intraperitoneally with a tumor inoculum of 10^6 ascites cells of P388 murine leukemia and treated with various doses of a test compound; four mice were used for each dose level and ten were used as saline-treated control. The compounds were administered by intraperitoneal injection on days 5 and 8 (day 1 being the day of tumor implantation). Antitumor activity was expressed as % T/C which is the ratio of the median survival time (MST) of drug-treated group to the MST of saline-treated control group. A compound showing a % T/C value of 125 or greater is generally considered to have significant antitumor activity in the P388 test. The experiment lasted 31 days at the end of which time the number of survivors was noted. Table I presents the results of the above-described evaluation; only the maximum % T/C and the dose showing the maximum effect are reported.

M109 murine lung = assay: In vitro cytotoxicity assay, M109 murine lung; format: cell-based; settings: four-fold serial dilution, two lines per compound; for IC50: Mus musculus, M109, inhibit cell growth by 50%; for IC50 M109: inhibit cell growth by 50%
Procedure: as §1, §2

B16-F10 murine melanoma = assay: In vitro cytotoxicity assay, B16-F10 murine melanoma; format: cell-based; settings: four-fold serial dilution, <500 μg/ml positive, two lines per compound; for IC50: Mus musculus, B16-F10, inhibit cell growth by 50%, read-out: IC50 B-16-F10; for IC50 B-16-F10: inhibit cell growth by 50%
Procedure: as §1, §2

SW900 human lung = assay: In vitro cytotoxicity assay, SW900 human lung; format: cell-based; settings: four-fold serial dilution, two lines per compound; for IC50: Homo sapiens, SW900, inhibit cell growth by 50%
Procedure: as §1, §2

Moser human colon = assay: In vitro cytotoxicity assay, Moser human colon; format: cell-based; settings: inhibit cell growth by 50%, four-fold serial dilution, two lines per compound; for IC50: Homo sapiens
Procedure: as §1, §2

HCT-116 = assay: In vitro cytotoxicity assay, HCT-116 human colon; format: cell-based; settings: four-fold serial dilution, two lines per compound; for IC50: Homo sapiens, HCT-116, inhibit cell growth by 50%; for IC50 HCT-116: inhibit cell growth by 50%
Procedure: as §1, §2

HCT/VM46 = assay: In vitro cytotoxicity assay, HCT/VM46 human colon, resistant to teniposide; format: cell-based; settings: inhibit cell growth by 50%, two lines per compound
Procedure: as §1, §2

HCT/VP35 = assay: In vitro cytotoxicity assay, HCT/VP35 human colon, resistant to etoposide; format: cell-based; settings: inhibit cell growth by 50%, two lines per compound
Procedure: as §1, §2

[1] = test system: small cell lung cancer, non-lymphocytic leukemia, and non-seminomatous testicular cancer; settings: AMA Drug Evaluation, 5th Edition, 1983; cited from earlier work

Row | Structure (SMILES) | IC50 (KB human nasopharyngyl; Homo sapiens) [µg/mL] | IC50 KB (KB human nasopharyngyl) [µg/mL] | Max. % T/C (median survival time treated / saline control) (P388 leukemia) [%] | IC50 (M109 murine lung) [µg/mL] | IC50 M109 (M109 murine lung) [µg/mL] | IC50 (B16-F10 murine melanoma) [µg/mL] | IC50 B-16-F10 (B16-F10 murine melanoma) [µg/mL] | IC50 (SW900 human lung) [µg/mL] | IC50 (Moser human colon) [µg/mL] | IC50 MOSER (Moser human colon) [µg/mL] | IC50 (HCT-116) [µg/mL] | IC50 HCT-116 (HCT-116) [µg/mL] | IC50 SW900 (SW900 human lung; inhibit cell growth by 50%) [µg/mL] | IC50 (HCT/VM46; Homo sapiens) [µg/mL] | IC50 HCT/VM46 (HCT/VM46) [µg/mL] | IC50 (HCT/VP35; Homo sapiens, HCT/VP35, etoposide-resistant) [µg/mL] | IC50 HCT/VP35 (HCT/VP35; etoposide-resistant) [µg/mL] | activity in the treatment of a variety of cancers (in words) [1]
1 | COC1=CC(C2c3cc4c(cc3C(OC3OC5COC(C)OC5C(O)C3O)C3COC(=O)C23)OCO4)=CC(=NOCc2ccccc2)C1=NOCc1ccccc1 (stereo not shown) [Example 1, 4'-Dehydroxy-3'-demethoxy-etoposide 3',4'-bis-O-benzyloxime] | 37 (≈ 47.3 µM) | 28 (≈ 35.8 µM) | 126 | 83 (≈ 106 µM) | 59 (≈ 75.4 µM) | 14.5 (≈ 18.5 µM) | 14.1 (≈ 18 µM) |  |  |  |  |  |  |  |  |  |  | 
2 | CON=C1C=C(C2c3cc4c(cc3C(OC3OC5COC(C)OC5C(O)C3O)C3COC(=O)C23)OCO4)C=C(OC)C1=NOC (stereo not shown) [Example 2, 4'-Dehydroxy-3'-demethoxy-etoposide 3',4'-bis-O-methyloxime] |  |  | 175 |  |  | 29 (≈ 46 µM) | 51 (≈ 80.9 µM) | > 250 | 54 (≈ 85.6 µM) | 40 (≈ 63.4 µM) | 84 (≈ 133 µM) | 91 (≈ 144 µM) |  |  |  |  |  | 
3 | COc1cc(C2c3cc4c(cc3C(OC3OC5COC(C)OC5C(O)C3O)C3COC(=O)C23)OCO4)cc(N)c1N (stereo not shown) [Example 3, 4'-Dehydroxy-3'-demethoxy-3',4'-diamino etoposide] |  |  | 216 | 104 (≈ 182 µM) | 87 (≈ 152 µM) |  |  |  | 87 (≈ 152 µM) | 91 (≈ 159 µM) | 108 (≈ 189 µM) | 102 (≈ 178 µM) |  |  |  |  |  | 
4 | COc1cc(C2c3cc4c(cc3C(OC3OC5COC(C)OC5C(O)C3O)C3COC(=O)C23)OCO4)cc(NC(C)=O)c1NC(C)=O (stereo not shown) [Example 4, 4'-Dehydroxy-3'-demethoxy-3',4'-bis-acetylamino etoposide] |  |  | 105 |  |  | 116 (≈ 177 µM) | 98 (≈ 149 µM) | > 250 | 106 (≈ 161 µM) | 123 (≈ 187 µM) | > 250 |  |  |  |  |  |  | 
5 | COc1cc(C2c3cc4c(cc3C(OC3OC5COC(C)OC5C(O)C3O)C3COC(=O)C23)OCO4)cc(N=Cc2ccncc2)c1N=Cc1ccncc1 (stereo not shown) [Example 10, 4'-Dehydroxy-3'-demethoxy-3',4'-bis-(4-pyridylmethylene) amino Etoposide] |  |  | 145 |  |  | 59 (≈ 78.6 µM) | 100 (≈ 133 µM) | > 250 |  |  | 81 (≈ 108 µM) | 103 (≈ 137 µM) |  |  |  |  |  | 
6 | COc1cc(C2c3cc4c(cc3C(OC3OC5COC(C)OC5C(O)C3O)C3COC(=O)C23)OCO4)cc2nn[nH]c12 (stereo not shown) [Example 17, 4'-Dehydroxy-3'-demethoxy-etoposide 3',4'-triazole] |  |  | 125 |  |  | 45 (≈ 77.1 µM) | 55 (≈ 94.3 µM) | 78 (≈ 134 µM) | 91 (≈ 156 µM) | 88 (≈ 151 µM) | 53 (≈ 90.8 µM) | 62 (≈ 106 µM) | 89 (≈ 153 µM) | 64 (≈ 110 µM) | 88 (≈ 151 µM) | 84 (≈ 144 µM) | 82 (≈ 141 µM) | 
7 | COc1cc(C2c3cc4c(cc3C(OC3OC5COC(C)OC5C(O)C3O)C3COC(=O)C23)OCO4)cc2nc[nH]c12 (stereo not shown) [Example 18, 4'-Dehydroxy-3'-demethoxy etoposide 3',4'-imidazole] |  |  | 115 |  |  | 82 (≈ 141 µM) | 55 (≈ 94.4 µM) | > 250 | 116 (≈ 199 µM) | 115 (≈ 197 µM) | > 250 |  |  |  |  |  |  | 
8 | COc1cc(C2c3cc4c(cc3C(OC3OC5COC(C)OC5C(O)C3O)C3COC(=O)C23)OCO4)cc2nc(C)c(C)nc12 (stereo not shown) [Example 20, 4'-Dehydroxy-3'-demethoxy-etoposide 3',4'-(2,3-dimethylpyrazine)] |  |  | 110 |  |  | 118 (≈ 190 µM) | 113 (≈ 181 µM) | > 250 | 113 (≈ 181 µM) | 90 (≈ 145 µM) | 103 (≈ 165 µM) | 99 (≈ 159 µM) |  |  |  |  |  | 
9 | CCOP1(=S)Nc2cc(C3c4cc5c(cc4C(OC4OC6COC(C)OC6C(O)C4O)C4COC(=O)C34)OCO5)cc(OC)c2N1 (stereo not shown) [Example 21, 4'-Dehydroxy-3'-demethoxy etoposide 3',4'-ethylthiophosphamide] |  |  | 145 |  |  | 23 (≈ 33.9 µM) | 17.9 (≈ 26.4 µM) | > 250 | 21 (≈ 30.9 µM) | 23 (≈ 33.9 µM) | 20 (≈ 29.5 µM) | 26 (≈ 38.3 µM) |  |  |  |  |  | 
10 | COc1cc([C@@H]2c3cc4c(cc3[C@@H](O[C@@H]3O[C@@H]5CO[C@@H](C)O[C@H]5[C@H](O)[C@H]3O)[C@H]3COC(=O)[C@H]23)OCO4)cc(OC)c1O [etoposide] |  |  |  |  |  |  |  |  |  |  |  |  |  |  |  |  |  | active in the treatment of a variety of cancers
11 | COc1cc([C@@H]2c3cc4c(cc3[C@@H](O[C@@H]3O[C@@H]5CO[C@@H](c6cccs6)O[C@H]5[C@H](O)[C@H]3O)[C@H]3COC(=O)[C@H]23)OCO4)cc(OC)c1O [teniposide] |  |  |  |  |  |  |  |  |  |  |  |  |  |  |  |  |  | active in the treatment of a variety of cancers
